Assay [1] has as its system fungi of a mixed bacterial/fungal inoculum isolated from spoiled metalworking fluids. The assay can be described thus: ASTM Practice E 2275-03 microbial challenge test of diluted metalworking fluids, fungal counts. Type of assay: cell-based. As to the method:
(§1) This compound was formulated at 8% by weight into a generic semi-synthetic metalworking fluid concentrate as described in Table 1. Identical formulations were prepared except substituting conventional amino alcohol compounds for 3A4O. The conventional amino alcohols were 2-amino-2-methyl-1-propanol (AMP) and n-butylethanolamine (BEA). An identical set of fluid concentrates was prepared including 1.5% of a 77% aqueous solution of 1,3,5-tris(2-hydroxyethyl)-s-triazine preservative, allowing us to evaluate fluids with and without preservative. The fluid concentrates were diluted at a rate of 20 parts Chicago tap water to 1 part fluid concentrate (by weight); the active amino alcohol concentration at dilution was therefore approximately 0.4% and the active preservative dosage (in the preserved set) was approximately 0.058%. These fluids were subjected to microbial challenge testing by ASTM Practice E 2275-03. In this method fluids are inoculated initially and then weekly with a mixed bacterial/fungal inoculum isolated from spoiled metalworking fluids. The bacterial and fungal counts are measured weekly using a serial dilution plate count method, and reported as colony forming units per milliliter (CFU/mL). The lower the CFU/mL the better the microbial control, and the longer the predicted service life of the fluid. The microbial results are described in FIGS. 1 & 2 (unpreserved) and FIGS. 3 & 4 (preserved with triazine).
(§2) This material was formulated into the same metalworking fluid concentrate described in Example A, at an 8% concentration. Identical fluids were prepared using 8% 2-amino-2-methyl-1-propanol (AMP) and 8% dicyclohexylamine (DCHA). The preservative benzisothiazolinone (BIOBAN BIT 20 DPG from Dow Biocides) was added to each fluid concentrate at 1.2%, giving an active concentration of 0.24% in the fluid concentrates and 0.012% in the use diluted fluids. The diluted fluids were subjected to the same microbial testing protocol described in Example A, and the results are described in FIGS. 5 & 6.
In order to understand the influence of use level of the amino alcohols of the invention, we prepared similar semi-synthetic fluid concentrates as described previously but using 4% amino alcohol to give 2000 ppm at use dilution; the difference in the formulation was made up with water. The fluid concentrates were preserved with the same level of triazine-77% described previously. These fluids were diluted and subjected to the same bacterial/fungal challenge tests described in Examples A and B; the data are found in FIGS. 8 & 9. […]

The subject of assay [2] is bacteria of a mixed bacterial/fungal inoculum isolated from spoiled metalworking fluids. Briefly: ASTM Practice E 2275-03 microbial challenge test of diluted metalworking fluids, bacterial counts. Format: cell-based. As to conditions: for bacterial growth / resistance to bacterial attack: 8% amino alcohol fluid with benzisothiazolinone (BIT), 0.012% active in diluted fluid, FIG. 5. As to the method: as §1, §2
In order to understand the influence of use level of the amino alcohols of the invention, we prepared similar semi-synthetic fluid concentrates as described previously but using 4% amino alcohol to give 2000 ppm at use dilution; the difference in the formulation was made up with water. The fluid concentrates were preserved with the same level of triazine-77% described previously. These fluids were diluted and subjected to the same bacterial/fungal challenge tests described in Examples A and B; the data are found in FIGS. 8 & 9.
FIGS. 10-17 provide additional comparisons between 3-amino-4-octanol (3A4O), an aminoalcohol of the invention, and the non-invention aminoalcohol compounds 2-amino-2-methyl-1-propanol (AMP) and n-butylethanolamine (BEA), in conjunction with various biocides. In particular, FIGS. 10 and 11 bacterial and fungal efficacy comparisons of the aminoalcohols with BIOBAN P-1487 (a combination of 4-(2-nitrobutyl)-morpholine with 4,4′-(2-ethyl-2-nitrotrimethylene)dimorpholine). This biocide was added to give 750 ppm in the diluted fluid. The amine dosage was adjusted to give 4000 ppm at dilution. FIGS. 12 and 13 show bacterial and fungal efficacies of the aminoalcohols in the presence of a triazine/IPBC biocide blend. Triazine-78% was added at 750 ppm based on diluted fluid and iodopropynylbutylcarbamate (IPBC) added at 300 ppm active at dilution. The amine dosage was adjusted to give 3000 ppm at dilution. FIGS. 14 and 15 show bacterial and fungal efficacy of the compounds with Benzisothiazolinone (BIT). BIT was added at 120 ppm active based on diluted fluid and iodopropynylbutylcarbamate (IPBC) added at 300 ppm active at dilution. The amine dosage was adjusted to give 3000 ppm at dilution. FIGS. 16 and 17 show bacterial and fungal efficacy of the aminoalcohols with a chloromethylisothiazolinone/methylisothiazolinone (CMIT/MIT) blend. […]

The test system of assay [3] is fungi of a mixed bacterial/fungal inoculum isolated from spoiled metalworking fluids. As to conditions: at the dosage used (about 0.058% active at dilution); cited from earlier work.
Assay [4] has as its system mycobacterium immunogenum (ATTCC strain 700505). The assay can be described thus: ASTM microbial challenge test with mycobacterial inoculum. Format: cell-based. As to conditions: 8% amino alcohol fluid with 1.5% triazine preservative (77% active) in concentrate; FIG. 7.
Another assay concerns pseudomonas aeroginosa. As to conditions: stated as known; cited from earlier work.

On to `CCCCC(O)C(C)N` (stereo not shown) [2A3H, 2-amino-3-heptanol], for which the “fungal growth / resistance to fungal attack” value in assay [1] (8% amino alcohol fluid with benzisothiazolinone (BIT), 0.012% active in diluted fluid, FIG. 6) is “resists attack better than that with AMP, and is comparable in resistance to the fluid with DCHA”. For the same compound, the “fungal growth (plate count, CFU/mL)” value in assay [1] (unpreserved semi-synthetic MWF, 8% amino alcohol in concentrate (about 0.4% at dilution), weekly inoculation, FIG. 2) was “does not significantly inhibit bacterial or fungal growth”. For the same compound, the “bacterial growth / resistance to bacterial attack” value in assay [2] is on record as “more resistant to bacterial attack than the others”. In addition, the “bacterial growth (plate count, CFU/mL)” value in assay [2] (unpreserved semi-synthetic MWF, 8% amino alcohol in concentrate (about 0.4% at dilution), weekly inoculation, FIG. 1) is “does not significantly inhibit bacterial or fungal growth”.

For the compound `OCCN1CN(CCO)CN(CCO)C1` [triazine preservative, 1,3,5-tris(2-hydroxyethyl)-s-triazine], the “efficacy of the preservative alone against fungi” value in assay [3] is “not effective against fungi”.

On to `CC(C)(N)CO` [AMP, 2-amino-2-methyl-1-propanol, reference compound], for which, in assay [2], the “bacterial growth / resistance to bacterial attack” value was “relatively poor performance against bacteria”. In addition, the “mycobacterial growth / resistance” value in assay [4] is reported as “virtually no inhibition of activity”.

As to `CCCCC(O)C(N)CC` (stereo not shown) [3A4O, 3-amino-4-octanol], the “fungal growth (plate count, CFU/mL)” value in assay [1] (8% amino alcohol fluid preserved with triazine (about 0.058% active at dilution), FIG. 4) is “unexpected reduction in growth rate over the full course of the test”. Further, the “enhancement of biocide efficacy against fungi” value in assay [1] (amine 3000-4000 ppm at dilution with BIOBAN P-1487, triazine/IPBC, BIT or CMIT/MIT, FIGS. 11, 13, 15, 17) was “greater enhancement against fungi”. In assay [2] (8% amino alcohol fluid preserved with triazine (about 0.058% active at dilution), FIG. 3), the “bacterial growth (plate count, CFU/mL)” value is on record as “unexpected reduction in growth rate over the full course of the test”. Further, the “enhancement of biocide efficacy against bacteria” value in assay [2] (amine 3000-4000 ppm at dilution with BIOBAN P-1487, triazine/IPBC, BIT or CMIT/MIT, FIGS. 10, 12, 14, 16) is “increased enhancement of biocide efficacy”.

In the case of `O=c1[nH]sc2ccccc12` [BIT, benzisothiazolinone], the “efficacy against pseudomonas aeroginosa” value in the assay with pseudomonas aeroginosa is recorded as “not to be effective”.

`C1CCC(NC2CCCCC2)CC1` [DCHA, dicyclohexylamine, reference compound]: the “bacterial growth / resistance to bacterial attack” value in assay [2] is “the opposite is true”.

Source of the values: US9034929B2, “Aminoalcohol and biocide compositions for aqueous based systems” (ANGUS Chemical Company, priority 2007, dated 2015).
